# Active and inactive are the calls of the source.
# What was measured:
# [1] = molecular target: T1, Cysteine protease ATG4B (Homo sapiens, UniProt Q9Y4P1); type: functional;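 also: Fluorescence-based dose-response confirmation assay measuring inhibition of ATG4B activity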
# T1 sequence (Q9Y4P1 whole entry): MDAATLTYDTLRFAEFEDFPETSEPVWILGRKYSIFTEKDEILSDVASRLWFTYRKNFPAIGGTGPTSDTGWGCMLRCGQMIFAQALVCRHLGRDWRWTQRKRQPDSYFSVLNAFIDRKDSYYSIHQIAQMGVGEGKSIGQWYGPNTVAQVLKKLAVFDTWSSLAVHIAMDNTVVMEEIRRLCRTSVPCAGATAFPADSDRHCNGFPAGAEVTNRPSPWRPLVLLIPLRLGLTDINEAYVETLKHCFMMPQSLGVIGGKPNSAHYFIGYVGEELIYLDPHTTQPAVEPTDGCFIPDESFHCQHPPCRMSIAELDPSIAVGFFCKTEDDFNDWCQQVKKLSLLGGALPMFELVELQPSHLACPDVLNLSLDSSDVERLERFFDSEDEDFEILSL
# [2] = molecular target: Phospholipase A2 (Homo sapiens, UniProt P04054); type: functional;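 also: confirmatory dose-response counterscreen on phospholipase A2, testing hits that came from an ultra-high-throughput screen for ATG4B inhibitors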
# [3] = molecular target: T2, Coagulation factor XII (Homo sapiens, UniProt P00748); type: functional;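 also: activated factor XIIa alpha cleaving a fluorogenic AMC peptide substrate; inhibitor potency from loss of enzyme activity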
# T2 sequence (P00748 whole entry): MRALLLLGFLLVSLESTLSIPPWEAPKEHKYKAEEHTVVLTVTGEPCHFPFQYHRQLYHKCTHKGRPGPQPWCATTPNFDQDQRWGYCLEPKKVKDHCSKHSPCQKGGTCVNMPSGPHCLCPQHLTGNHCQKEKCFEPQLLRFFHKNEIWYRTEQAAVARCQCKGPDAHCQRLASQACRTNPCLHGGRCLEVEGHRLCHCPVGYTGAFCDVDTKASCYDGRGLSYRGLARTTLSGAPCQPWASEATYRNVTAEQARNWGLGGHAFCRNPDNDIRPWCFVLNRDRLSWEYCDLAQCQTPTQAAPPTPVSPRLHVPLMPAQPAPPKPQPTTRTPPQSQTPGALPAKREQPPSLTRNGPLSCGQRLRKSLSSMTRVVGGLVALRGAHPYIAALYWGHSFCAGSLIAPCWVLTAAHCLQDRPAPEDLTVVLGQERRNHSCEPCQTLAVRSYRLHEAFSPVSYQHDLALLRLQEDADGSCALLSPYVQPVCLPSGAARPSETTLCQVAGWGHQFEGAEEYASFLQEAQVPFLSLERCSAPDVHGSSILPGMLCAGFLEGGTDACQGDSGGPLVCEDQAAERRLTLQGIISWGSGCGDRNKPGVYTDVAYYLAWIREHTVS
# [4] = molecular target: T3, Replicative DNA helicase DnaB (Mycobacterium tuberculosis, UniProt P9WMR3); test: DnaB intein splicing inhibitors, dose response, biochemical, cell-free fluorescence (AID 449749); type: functional
# T3 sequence (P9WMR3 whole entry): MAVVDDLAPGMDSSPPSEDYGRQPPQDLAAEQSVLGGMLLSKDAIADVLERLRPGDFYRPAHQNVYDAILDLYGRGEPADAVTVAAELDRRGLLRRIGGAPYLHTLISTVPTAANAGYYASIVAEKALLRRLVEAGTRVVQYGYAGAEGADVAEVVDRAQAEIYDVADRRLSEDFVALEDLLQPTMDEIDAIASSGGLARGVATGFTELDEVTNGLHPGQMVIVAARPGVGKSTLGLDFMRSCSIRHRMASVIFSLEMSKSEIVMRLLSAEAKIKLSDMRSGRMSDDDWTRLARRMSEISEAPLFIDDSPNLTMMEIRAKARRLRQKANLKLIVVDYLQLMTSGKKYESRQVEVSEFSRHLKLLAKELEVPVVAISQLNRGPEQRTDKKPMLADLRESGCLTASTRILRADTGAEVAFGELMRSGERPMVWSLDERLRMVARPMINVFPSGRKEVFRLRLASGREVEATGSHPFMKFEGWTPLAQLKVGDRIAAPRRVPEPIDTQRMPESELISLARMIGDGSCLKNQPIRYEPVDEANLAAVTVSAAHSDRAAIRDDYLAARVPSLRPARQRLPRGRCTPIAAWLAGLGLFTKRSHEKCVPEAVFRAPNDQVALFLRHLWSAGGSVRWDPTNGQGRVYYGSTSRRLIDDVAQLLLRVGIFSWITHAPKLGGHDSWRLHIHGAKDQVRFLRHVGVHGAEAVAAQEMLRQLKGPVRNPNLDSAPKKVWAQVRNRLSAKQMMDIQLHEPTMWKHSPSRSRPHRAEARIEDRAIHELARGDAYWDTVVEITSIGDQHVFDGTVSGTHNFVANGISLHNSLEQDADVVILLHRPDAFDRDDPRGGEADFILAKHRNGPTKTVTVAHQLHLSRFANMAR
# [5] = molecular target: DNA damage-inducible transcript 3 protein (Mus musculus, UniProt P35639); type: functional, Cricetulus griseus
# [6] = molecular target: T4, Protein RecA (Mycobacterium tuberculosis, UniProt P9WHJ3); test: Fluorescence Cell-Free Homogeneous Dose Retest to Identify Inhibitors of RecA-Intein Splicing Activity. [Related pubchem assays (depositor defined):AID2097, AID2223, AID489010, AID492950]; type: functional
# T4 sequence (P9WHJ3 whole entry): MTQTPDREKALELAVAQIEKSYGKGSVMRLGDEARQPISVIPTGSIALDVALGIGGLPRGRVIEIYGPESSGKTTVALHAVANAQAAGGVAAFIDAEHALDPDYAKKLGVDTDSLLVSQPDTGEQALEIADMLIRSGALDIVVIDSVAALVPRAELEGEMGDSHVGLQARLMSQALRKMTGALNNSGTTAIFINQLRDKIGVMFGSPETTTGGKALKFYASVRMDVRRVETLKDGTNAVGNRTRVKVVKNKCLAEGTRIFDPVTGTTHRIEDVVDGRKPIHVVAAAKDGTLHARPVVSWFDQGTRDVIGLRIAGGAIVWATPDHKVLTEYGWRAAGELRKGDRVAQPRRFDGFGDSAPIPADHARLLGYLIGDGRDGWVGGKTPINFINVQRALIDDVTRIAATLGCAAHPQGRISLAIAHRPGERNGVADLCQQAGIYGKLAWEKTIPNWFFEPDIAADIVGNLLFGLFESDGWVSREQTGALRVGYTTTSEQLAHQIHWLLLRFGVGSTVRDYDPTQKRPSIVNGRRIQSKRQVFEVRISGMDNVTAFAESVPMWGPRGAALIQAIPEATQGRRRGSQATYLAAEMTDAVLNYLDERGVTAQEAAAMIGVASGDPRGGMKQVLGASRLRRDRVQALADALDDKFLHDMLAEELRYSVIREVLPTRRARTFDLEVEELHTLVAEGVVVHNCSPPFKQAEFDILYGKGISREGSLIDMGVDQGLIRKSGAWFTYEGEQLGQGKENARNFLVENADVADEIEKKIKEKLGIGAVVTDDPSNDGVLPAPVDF
# [7] = molecular target: T5, Probable nicotinate-nucleotide adenylyltransferase (Staphylococcus aureus (strain N315), UniProt P65502); type: functional, Staphylococcus aureus subsp. aureus N315; settings: read-out: IC50_Mean;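 as to IC50 Mean: confirmatory dose-response retesting of NadD inhibitor hits first found in an ultra-high-throughput screen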
# [8] = molecular target: T6, Heat shock factor protein 1 (Mus musculus, UniProt P38532); test: HSF1 potentiators in luciferase reporter cells, confirmation, cell-based, NIH3T3, luminescence, dose retest (AID 435004); type: functional;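 also: stress induced by proteasome inhibitor MG132 added 30 min after compound; luciferase reporter driven by HSF1 response element in NIH3T3 cells; actives raise luminescence as potentiators of the MG132 stress response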
# T6 sequence (P38532 whole entry): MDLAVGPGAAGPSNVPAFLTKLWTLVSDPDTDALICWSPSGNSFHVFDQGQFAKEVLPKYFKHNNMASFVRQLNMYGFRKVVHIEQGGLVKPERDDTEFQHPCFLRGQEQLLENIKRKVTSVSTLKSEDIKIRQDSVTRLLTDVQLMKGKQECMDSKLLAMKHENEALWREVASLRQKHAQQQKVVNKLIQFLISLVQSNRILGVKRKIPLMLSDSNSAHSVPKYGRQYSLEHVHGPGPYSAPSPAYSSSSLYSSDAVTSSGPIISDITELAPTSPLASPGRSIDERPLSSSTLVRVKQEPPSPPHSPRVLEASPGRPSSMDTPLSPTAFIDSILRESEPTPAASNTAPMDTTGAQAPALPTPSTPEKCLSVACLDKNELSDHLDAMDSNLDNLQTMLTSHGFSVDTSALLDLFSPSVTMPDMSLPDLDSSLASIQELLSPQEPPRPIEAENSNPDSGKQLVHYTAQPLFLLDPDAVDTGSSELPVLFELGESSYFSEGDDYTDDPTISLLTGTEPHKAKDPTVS
# [9] = molecular target: T5, Probable nicotinate-nucleotide adenylyltransferase; type: functional, Staphylococcus aureus subsp. aureus N315
# [10] = molecular target: T7, Tyrosyl-DNA phosphodiesterase 2 (Homo sapiens, UniProt O95551); test: human TDP2 enzyme inhibitors, dose response, biochemical, epi absorbance, IC50 (AID 743297)
# T7 sequence (O95551 whole entry): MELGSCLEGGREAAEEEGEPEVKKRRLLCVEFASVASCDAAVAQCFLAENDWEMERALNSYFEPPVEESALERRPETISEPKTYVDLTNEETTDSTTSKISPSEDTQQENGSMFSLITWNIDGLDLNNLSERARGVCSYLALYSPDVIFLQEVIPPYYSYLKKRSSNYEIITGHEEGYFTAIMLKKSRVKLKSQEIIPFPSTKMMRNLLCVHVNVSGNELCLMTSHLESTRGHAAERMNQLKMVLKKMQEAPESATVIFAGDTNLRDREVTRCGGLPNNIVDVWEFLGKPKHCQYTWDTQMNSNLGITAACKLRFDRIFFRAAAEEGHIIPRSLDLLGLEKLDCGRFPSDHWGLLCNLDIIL
# [11] = cytotoxicity toward DRD oncogenic fibroblasts, dose response, cell-based, non-viral oncogenic, luminescence (AID 1934); type: functional; settings: Homo sapiens
# [12] = test system: BJ; test: cells; type: functional, cell-based; settings: Homo sapiens
# [13] = HepG2 cell cytotoxicity, dose response, cytotoxicity control for non-replicating M. tuberculosis project (AID 489018); type: functional; settings: Mycobacterium tuberculosis
# [14] = inhibitors of intracellular T. cruzi replication, confirmation, NIH3T3 host cells, beta-gal luminescence (AID 2044); type: functional, cell-based;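 also: intracellular parasites grown in NIH/3T3 mouse fibroblasts as host cells; luminescent beta-galactosidase reporter signal from transgenic T. cruzi replicating inside host cells; inhibitors lower the luminescence signal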
# [15] = THP-1 cell cytotoxicity, dose response, cytotoxicity control for non-replicating M. tuberculosis project (AID 489025); type: functional
# [16] = microbe, parasite or virus in culture; type: functional; settings: Mycobacterium tuberculosis
# [17] = test system: INS1; test: beta cell apoptosis inhibitors, cytokine rescue, dose response, luminescence, retest (AID 449756); type: functional, cell-based; settings: Rattus norvegicus;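 also: cell death triggered by IL-1 beta plus TNF-alpha plus IFN-gamma mixture; protective hits raise ATP signal compared with cytokine alone wells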
# [18] = molecular target: T8, Mannose-6-phosphate isomerase (Homo sapiens, UniProt P34949); test: human PMI inhibitors, high substrate, primary screen, biochemical, fluorescence intensity, high mannose 6-phosphate (AID 1220)
# T8 sequence (P34949 whole entry): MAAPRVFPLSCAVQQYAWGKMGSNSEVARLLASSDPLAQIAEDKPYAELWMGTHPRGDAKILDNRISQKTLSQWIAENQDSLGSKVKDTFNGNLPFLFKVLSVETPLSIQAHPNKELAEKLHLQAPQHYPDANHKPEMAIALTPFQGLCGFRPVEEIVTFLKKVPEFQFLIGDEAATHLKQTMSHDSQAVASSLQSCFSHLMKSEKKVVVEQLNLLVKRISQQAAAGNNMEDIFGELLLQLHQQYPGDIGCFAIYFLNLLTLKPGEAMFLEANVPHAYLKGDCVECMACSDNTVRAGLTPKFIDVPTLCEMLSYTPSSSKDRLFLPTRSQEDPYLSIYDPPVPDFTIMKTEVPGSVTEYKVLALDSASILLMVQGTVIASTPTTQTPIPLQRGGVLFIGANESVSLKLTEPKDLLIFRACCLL
# [19] = test system: BJ; test: cytotoxicity toward BJ-TERT fibroblasts, dose response, cell-based, RAS-independent, luminescence (AID 1933); type: functional; settings: Homo sapiens
# [20] = test system: BJ; test: cytotoxicity toward BJ-TERT-LT-ST fibroblasts, dose response, cell-based, RAS-independent, luminescence (AID 1935); type: functional; settings: Homo sapiens;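 also: BJ fibroblasts immortalized with TERT plus LT and ST oncogenes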
# [21] = growth suppression of PTEN-null colon cells, dose response, cell-based, HCT116 PTEN knockout (AID 1047); type: functional;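 also: HCT116 colon tumor cells with PTEN knocked out; cells exposed to compound for 60 hours before readout; potency for loss of cell viability measured by luminescence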
# [22] = growth suppression of beta-catenin-knockout colon cells, dose response, cell-based, HCT116, human colon tumor (AID 1045); type: functional;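 also: HCT116 colon tumor cells with beta catenin knocked out; cells exposed to compound for 60 hours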
# [23] = cytotoxicity toward NIH3T3 fibroblasts, dose response, counter-screen, cell-based, ATP luminescence, mouse fibroblasts (AID 2010); type: functional;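 also: cells exposed to compound for about 90 hours before reading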
# [24] = cells; type: functional
# [25] = Vero E6 cell cytotoxicity, dose response, cytotoxicity control for non-replicating M. tuberculosis project, secondary assay (AID 492998); type: functional, VeroE6; settings: Vero C1008
# T5 sequence (P65502 whole entry): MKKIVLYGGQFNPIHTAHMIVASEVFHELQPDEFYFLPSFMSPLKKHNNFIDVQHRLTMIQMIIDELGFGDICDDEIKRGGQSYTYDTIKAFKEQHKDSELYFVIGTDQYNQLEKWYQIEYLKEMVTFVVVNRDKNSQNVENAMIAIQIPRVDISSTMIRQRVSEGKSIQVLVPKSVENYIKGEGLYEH
# DNA damage-inducible transcript 3 protein, sequence (P35639 whole entry): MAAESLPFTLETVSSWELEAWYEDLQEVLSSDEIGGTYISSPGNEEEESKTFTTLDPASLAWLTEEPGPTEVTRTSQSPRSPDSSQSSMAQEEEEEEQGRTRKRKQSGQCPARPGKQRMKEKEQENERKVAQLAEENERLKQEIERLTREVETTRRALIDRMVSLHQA
# Phospholipase A2, sequence (P04054 whole entry): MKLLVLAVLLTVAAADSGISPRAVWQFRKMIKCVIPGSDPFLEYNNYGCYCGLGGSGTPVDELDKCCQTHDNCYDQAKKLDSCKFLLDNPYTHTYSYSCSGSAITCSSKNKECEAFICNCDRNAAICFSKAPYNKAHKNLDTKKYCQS
smiles,measurement,setting,value
CN(C)c1ccc(-c2nnn(Cc3ccccc3Br)n2)cc1,IC50,[1],13.2 µM (active)
same,IC50,[2],7.95 µM (active)
CCC1SC(CC)C(=O)N(CC(=O)NC2CCCCC2)C1=O (stereo unspecified),IC50,[3],> 50 µM (inactive)
CCOc1ccc(N2C(=O)/C(=C\c3ccc(O)c(OC)c3)S(=O)(=O)C2c2cccc([N+](=O)[O-])c2)cc1 (stereo unspecified),AC50,[4],2.96 µM (active)
same,Absolute IC50 (CHOP),[5],10 µM
same,EC50,[6],3.74 µM (active)
same,IC50,[7],35.9 µM (active)
same,EC50,[8],8.52 µM (active)
same,IC50,[9],9.57 µM (active)
CCn1cc([N+](=O)[O-])c(C(=O)N2N=C(c3ccc(Cl)c(Cl)c3)CC2c2ccccc2O)n1 (stereo unspecified),Absolute IC50 (CHOP),[5],10 µM
same,EC50,[8],> 260 µM (inactive)
O=C1OC(Nc2ncccn2)c2ccccc21 (stereo unspecified),IC50,[3],> 50 µM (inactive)
CCCNC1=C(N(C(C)=O)c2cccc(F)c2)C(=O)c2ccccc2C1=O,IC50,[10],> 4.75 µM (active)
same,AC50,[4],9.44 µM (active)
same,EC50,[11],6.47 µM (active)
same,EC50,[12],5.96 µM (active)
same,EC50,[6],2.06 µM (active)
same,CC50,[13],8.6 µM (active)
same,EC50,[14],1.23 µM (active)
same,CC50,[15],1.47 µM (active)
same,CC50,[16],31 µM (active)
same,AC50,[17],1.03 µM (active)
same,IC50,[18],> 50 µM (not active)
same,EC50,[19],6.47 µM (inconclusive)
same,EC50,[20],6.6 µM (active)
same,EC50,[21],1.14 µM (active)
same,EC50,[22],0.979 µM (active)
same,EC50,[23],10.3 µM (active)
same,IC50,[24],20.8 µM (active)
same,CC50,[25],17.7 µM (active)
CC(=O)c1ccc(N2CCN(S(=O)(=O)c3cccc(S(=O)(=O)N4CCOCC4)c3)CC2)cc1,IC50,[3],> 50 µM (inactive)

# From ChEMBL document CHEMBL1201862, “PubChem BioAssay data set” (2004)
